# Measurements taken from publication PMC7895558, “Antiprotozoal Compounds from Urolepis hecatantha (Asteraceae)” (Evidence-based Complementary and Alternative Medicine : eCAM, 2021).
# Values joined by “and” are separate entries in the source; they are usually repeats but may differ in a detail not shown here. Equal values may be shown once. Read-outs that look alike come from different tables or passages of the source.
# Assays:
# [1] = test system: Trypanosoma cruzi epimastigotes (Tulahuen 2 strain); assay: in vitro anti-Trypanosoma cruzi activity (epimastigote growth, absorbance 600 nm); type: cell-based; conditions: for IC50: Trypanosoma cruzi, TULAHUEN, 120 h, read-out: IC50 on T. cruzi epimastigotes
# Procedure: (§1) For the anti-Trypanosoma and anti-Leishmania activity assays, we followed the methods described by Aguilera et al., 2019 [15].
# For the in vitro anti-Trypanosoma cruzi activity, epimastigotes of the Tulahuen 2 strain (genotype TcVI) grown in an axenic medium (BHI-Tryptose) were used. Cells from a 5–7-day-old culture were inoculated in a fresh culture medium to give an initial concentration of 10^6 cells/mL. The absorbance at 600 nm of the cells in culture was measured every day. On day five, the medium was inoculated with different doses of the compounds (25–0.05 µM) from a stock solution in dimethylsulfoxide (DMSO) (DMSO concentration in the culture medium never exceeded 0.4%). Control parasites were cultivated in medium with 0.4% DMSO v/v. Benznidazole was used as a positive control. At five days, the absorbance of the culture was measured and compared to the control and the IC50 values were calculated for each compound using OriginLab 8.5® sigmoidal regression. Each experiment was done in duplicate, and each concentration was tested in triplicate.
# cytotoxicity assay (MTT) = type: cell-based; conditions: mouse
# Procedure: The cytotoxicity of the dewaxed dichloromethane extract of U. hecatantha and the isolated compounds was evaluated according to the method described by Aguilera et al., 2019 [15]. The J774.1 murine macrophages (ATCC, USA) were grown in a DMEM culture medium containing 4 mM L-glutamine and supplemented with 10% FCS. Cells were seeded in a 96-well plate (5.00 × 10^4 cells in 200 µL culture medium) and incubated at 37°C in a 5% CO2 atmosphere for 48 h, to allow cell adhesion before drug testing. Afterwards, cells were exposed for 48 h to the compounds (25–400 µM) or the vehicle for control (medium with 0.4% DMSO v/v), and additional control (cells in medium) were used in each test. Cell viability was then assessed by measuring the mitochondria-dependent reduction of MTT [3-(4,5-dimethylthiazol-2-yl)-2,5-diphenyltetrazolium bromide] to formazan. For this purpose, MTT in sterile PBS (containing 0.2% glucose), pH 7.4, was added to the macrophages to achieve a final concentration of 0.1 mg/mL, and the cells were incubated at 37°C for 3 h. After removing the medium, formazan crystals were dissolved in 180 µL of DMSO and 20 µL of MTT buffer (0.1 M glycine, 0.1 M NaCl, 0.5 mM EDTA, pH 10.5), and the absorbance at 560 nm was measured. The CC50 was defined as the drug concentration at which 50% of the cells were viable, relative to the control (no drug added), and was determined using OriginLab 8.5® sigmoidal regression (% of viable cells compared to the logarithm of the compound concentration). Tests were performed in triplicate.
# [2] = test system: Leishmania infantum promastigotes; assay: anti-Leishmania activity (promastigotes, resazurin); type: cell-based; conditions: 48 h, read-out: IC50 on L. infantum promastigotes
# Procedure: as §1
# Leishmania infantum (MHOM/BR/2002/LPC-RPV) was obtained from Fiocruz (Collection of Oswaldo Cruz Foundation, Rio de Janeiro, Brazil). Promastigotes were cultured as described with some modifications at 28°C in an axenic medium (BHI-Tryptose supplemented with: FBS 10%, hemine 2 × 10^−5 mg/mL, glucose 3.0 × 10^−4 g/mL, streptomycin 2.0 × 10^−4 g/mL, ampicillin 1.3 × 10^−4 g/mL) as a low-cost alternative for Leishmania spp. culture. Assays were performed in 96-well plastic plates using 2 × 10^6 promastigotes per well. Compounds were dissolved in DMSO. Different serial dilutions (25–0.05 µM) of the compounds with a final volume up to 200 µL were added. After 48 h at 28°C, 20 µL of a 2 mM resazurin solution was added, and the oxidation-reduction was quantified at 570 and 600 nm. The resazurin solution was prepared at 2.5 mM in phosphate-buffered solution (PBS), pH 7.4, and filtered through 0.22 µm before use. Resazurin sodium salt was obtained from Sigma-Aldrich (St. Louis, MO, USA) and stored at 4°C protected from light. Glucantime was used as a positive control. The efficacy of each compound was estimated by calculating the IC50 values using OriginLab 8.5® sigmoidal regression. Each antiproliferative experiment was done in duplicate, and each concentration was tested in triplicate.
# [3] = test system: Trypanosoma brucei rhodesiense trypomastigotes; conditions: cited from earlier work
# [4] = test system: L6-cell line from rat-skeletal myoblasts; design: method as in PMID 29244495; conditions: read-out: CC50 on L6 cells; cited from earlier work
# [5] = Leishmania infantum, promastigotes
Compound,"IC50 ([1]; epimastigotes, 5 days)","IC50 [2, 5]",CC50 at 48 h (cytotoxicity assay (MTT); J774.1 murine macrophages) [µM],further results
"O=C(Cn1ccnc1[N+](=O)[O-])NCc1ccccc1 [benznidazole, reference compound]",7 ± 2 µM,–,–,–
"C=C(C)c1cc2cc(C(C)=O)c(O)cc2o1 [compound 1, euparin]",–,–,–,IC50 [1]: > 25 µM; CC50 at 48 h (cytotoxicity assay (MTT); murine macrophages): > 25 µM; IC50 ([2]; Leishmania infantum): 18 µM and 3.9 µg/mL
Glucantime [reference compound],–,–,–,IC50 ([2]; promastigotes): 26 ± 9 µM
"C=C1C(=O)O[C@@H]2/C=C(/C)[C@@H](OC(C)=O)C/C=C(\C)C[C@@H](OC(=O)/C(=C/CO)CO)[C@@H]12 [compound 4, eucannabinolide]",10 µM and 4.2 µg/mL,> 25 µM,–,"IC50 ([3]; loaded onto polylactic acid nanoparticles, target not restated in the sentence, read-out: free drug equivalent IC50): 3.32 µM; IC50 ([3]; read-out: IC50 against Trypanosoma brucei rhodesiense trypomastigotes): 1.1 ± 0.1 µM; selectivity index (SI) on T. cruzi ([1]; macrophage CC50 versus T. cruzi epimastigote IC50): 1.5; CC50 [4]: 7.8 ± 0.8 µM; CC50 (cytotoxicity assay (MTT); murine macrophages, 48 h): 15 µM"
"C=C1C(=O)O[C@@H]2/C=C(\C)[C@@H](O)C/C=C(\C)C[C@@H](OC(=O)/C(=C/CO)COC(C)=O)[C@@H]12 [compound 3, santhemoidin C]",18 µM and 7.6 µg/mL,19 µM and 8 µg/mL,> 15,–
"COc1cc(-c2oc3cc(O)c(OC)c(O)c3c(=O)c2OC)ccc1O [compound 2, jaceidin]",> 25 µM,> 25 µM,> 25,–
